Test results published in patent US9308210B2, “Method for modulating canonical Wnt pathway using folate and inositol” (University of South Florida, priority 2009, dated 2016).
Counter-ions that a name gives are not always drawn.

How the values were obtained:
C57BL/6 mouse embryos = assay: Morphometric measurements, resorptions and lethality of mouse embryos after Li or HCy exposure, FA rescue; type: in vivo; details: for Resorptions (percent): hydrochloride
Description: To determine whether the results in the avian system would extend to the mammalian system, the inventors conducted studies in the mouse embryo. All mice were maintained according to protocols approved by the Institutional Animal Care and Use Committee at the University of South Florida. The C57BL/6 mouse strain (Jackson Laboratories, Bar Harbor, Me.) was used throughout the study. E0.5 was defined as the morning when the vaginal sperm plug was detected. Timed pregnant mice were randomly allocated to receive a single dose of 100 μl of 6.25 mg/ml Li chloride, as determined previously (Chen et al., 2008), 100 μl of 75 μM HCy, or 100 μl of 6.25 mg/ml sodium chloride (control group); all treatments were given intraperitoneally (i.p). On E15.5, the utero-placental circulation of the pregnant mice, and the central and peripheral circulations of the embryos were examined non-invasively in utero using Doppler ultrasonography (Gui et al., 1996; Linask and Huhta, 2000). Sixty-eight embryos were exposed to Li, 59 to HCy and 42 to physiological saline.
An HCy concentration of 75 μM, used for maternal exposure, was determined empirically using different doses of HCy (i.e. 150, 75, 50 and 15 μM). The minimal teratogenic dose was determined to be 75 μM. […] The single i.p. injection of HCy at E6.75 produced a high number of valve defects (66%), as well as resorptions (46%). […] Because not all embryos within litters are at exactly the same stage of development, the variability of effects seen with either Li or HCy probably reflects the differences in developmental stage.
Following echo monitoring on E15.5, placental weight and morphometric measurements of crown-rump length and body weight were obtained. […] HCy administered on E6.75 induced valve defects in 66.1% of the embryos (39/59 embryos). Some litters were allowed to develop to E18.5.

[1] = system: Wnt pathway-associated and lipid metabolism genes; assay: Affymetrix microarray of E15.5 embryonic heart tissue after Li+ or HCys exposure with or without FA; type: in vivo, mouse
Description: The inbred C57B16 mouse strain (Jackson Laboratories, Bar Harbor, Me.) was used throughout this study. It has become recognized that mouse strains can differ in their response to environmental factors (Andrikopoulos et al., 2005; Barnabei et al., 2010; Funkat et al., 2004). Thus, the mouse strain being used should be taken into consideration when comparing different studies. Morning of detection of the vaginal sperm plug was defined as embryonic day (E) 0.5. Timed-pregnant mice were randomly allocated to receive intraperitoneally (i.p.) either a single dose of 100 μl of 6.25 mg/ml of lithium chloride (Li+), as previously determined (Chen et al., 2008), 100 μl of 75 μM HCys (Han et al., 2009), or 100 μl of 0.9% physiological saline (control group). […]
As in the previous studies, animal chow was supplemented with 10.5 mg/kg folic acid (FA), a concentration that has been used in trial human population studies (Czeizel et al., 2013; Han et al., 2009). […] On ED 6.75 (at 5:30 PM) experimental pregnant females received Li+ or HCys by an i.p. injection that the inventors reported induces a high incidence of valve and heart defects as detected by echocardiography at mid-gestation on ED 15.5 (Han et al., 2009).
The inventors analyzed for gene misexpression in the embryonic heart on E15.5 of gestation, i.e., over a week after the acute exposures. […]

SMILES	Body Weight (C57BL/6 mouse embryos; E15.5 after exposure on E6.75) [g]	CRL (C57BL/6 mouse embryos; E15.5 after exposure on E6.75) [mm]	Placenta Weight (C57BL/6 mouse embryos; E15.5 after exposure on E6.75) [g]	embryonic lethality (C57BL/6 mouse embryos; acute single dose of HCy at E5.5) [%]	Resorptions (embryos/total) (C57BL/6 mouse embryos; exposure on E6.75)	Resorptions (percent) (C57BL/6 mouse embryos; exposure on E6.75) [%]	Resorptions (percent) (C57BL/6 mouse embryos; exposure on E6.75, listed as HCys) [%]	placental weight, crown-rump length and body weight versus control embryos (C57BL/6 mouse embryos; single exposure on E6.75, E15.5)	Wnt pathway-associated gene expression ([1]; E15.5 hearts after acute exposure at E6.75)	changes in lipid metabolism gene expression with high FA supplementation ([1]; Li or HCys exposure, FA 10.5 mg/kg diet)
N[C@H]1CCSC1=O [HCy, L-homocysteine thiolactone hydrochloride]	0.35	13	0.11	79	27/59	46	45.7	significantly decreased	significantly misexpressed	
Nc1nc2ncc(CNc3ccc(C(=O)N[C@@H](CCC(=O)O)C(=O)O)cc3)nc2c(=O)[nH]1 [FA, folic acid]										prevented
